Laboratory results reported in ChEMBL document CHEMBL1201862, “PubChem BioAssay data set” (2004).
The source made the active and inactive calls.

Key:
[1] = molecular target: FAD-linked sulfhydryl oxidase ALR (Homo sapiens, UniProt P55789); assay: ALR-catalysed DTT oxidation blockers – biochemical, H2O2 detection, luminescence, cherry-pick, dose response (AID 493248)
H9c2 = assay: cells; type: functional, cell-based; conditions: Rattus norvegicus, H9c2, Myocardium;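 note: confirmatory concentration-response retest of ultra-high-throughput screening hits for modulation of myocardial damage; cell death induced by hydrogen peroxide oxidative stress; compound pretreatment for 60 min then peroxide exposure for 2 h; potency is for protecting the cells against peroxide damage rather than for killing them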
Fatty acid synthase [2] = molecular target: T1, Fatty acid synthase (Homo sapiens, UniProt P49327); assay: inhibition of human FAS-TE enzyme activity – biochemical, kinetic fluorescence intensity, dose response (AID 624326); type: functional;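 note: rate of fluorescence rise from hydrolysis of a fluorogenic O-methyl fluorescein ester substrate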
Fatty acid synthase [3] = molecular target: T1, Fatty acid synthase; assay: inhibition of human FAS-TE enzyme activity – biochemical, endpoint fluorescence intensity, uHTS hits, dose response (AID 624327); type: functional;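 note: fluorescence from hydrolysis of an O-methyl fluorescein acyl ester substrate by the enzyme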
[4] = Luminescence Cell-Based Dose Confirmation HTS to Identify Inhibitors of Platelet Dense Granule Release. [Related pubchem assays: 1663 (Primary HTS), 1678 (Summary of Project)]; type: functional
[5] = molecular target: Luciferin 4-monooxygenase (Photinus pyralis, UniProt P08659); assay: inhibition of purified Photinus pyralis luciferase – biochemical, luminescence, dose response (AID 1891)
[6] = molecular target: T2, Heat shock factor protein 1 (Mus musculus, UniProt P38532); assay: decrease of HSF1-responsive luciferase luminescence – cell-based, NIH3T3, dose retest, confirmation (AID 2382); type: functional;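 note: NIH3T3 fibroblasts with HSF1-driven luciferase reporter stressed by proteasome inhibitor MG132; luminescence from HSF1-driven luciferase expression after 8 hours of MG132 stress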
T2 sequence (P38532 whole entry): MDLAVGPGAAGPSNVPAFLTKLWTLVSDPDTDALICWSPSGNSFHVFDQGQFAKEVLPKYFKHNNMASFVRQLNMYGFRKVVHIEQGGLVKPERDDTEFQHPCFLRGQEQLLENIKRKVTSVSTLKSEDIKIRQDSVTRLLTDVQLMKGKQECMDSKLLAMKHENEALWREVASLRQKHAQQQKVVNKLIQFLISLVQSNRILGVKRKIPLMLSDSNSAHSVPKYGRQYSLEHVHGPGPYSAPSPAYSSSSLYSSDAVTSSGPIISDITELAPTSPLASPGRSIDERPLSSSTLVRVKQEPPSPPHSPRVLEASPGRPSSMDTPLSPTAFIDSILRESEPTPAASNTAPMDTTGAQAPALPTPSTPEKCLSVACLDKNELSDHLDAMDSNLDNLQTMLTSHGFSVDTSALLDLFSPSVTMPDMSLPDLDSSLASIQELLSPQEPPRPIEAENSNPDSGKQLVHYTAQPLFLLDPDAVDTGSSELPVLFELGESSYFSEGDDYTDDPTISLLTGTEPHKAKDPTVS

[7] = alpha-synuclein stem-loop luciferase translation blockers – H4 neuroglioma cells, luminescence, confirmation (AID 1988); type: functional, cell-based
[8] = luciferase reporter signal suppression in cells – H4 neuroglioma cells, luminescence, dose response (AID 1990); type: functional, cell-based
[9] = Luminescence Cell-Based Dose Response HTS to Identify Inhibitors of 5'UTR Stem-Loop Driven Prion Protein mRNA Translation in H4 Neuroglioblastoma Cells. [Related pubchem assays: 1827 (Project Summary), 1813 (Primary HTS)]; type: functional
Genome polyprotein = Genome polyprotein (dengue virus type 2, UniProt P29990); assay: flavivirus cap methylation enzyme inhibition – biochemical, confirmation dose response, primary screen (AID 588689); type: functional
Protein RecA = molecular target: T3, Protein RecA (Mycobacterium tuberculosis, UniProt P9WHJ3); assay: Fluorescence Cell-Free Homogeneous Dose Retest to Identify Inhibitors of RecA-Intein Splicing Activity. [Related pubchem assays (depositor defined):AID2097, AID2223, AID489010, AID492950]; type: functional
T3 sequence (P9WHJ3 whole entry): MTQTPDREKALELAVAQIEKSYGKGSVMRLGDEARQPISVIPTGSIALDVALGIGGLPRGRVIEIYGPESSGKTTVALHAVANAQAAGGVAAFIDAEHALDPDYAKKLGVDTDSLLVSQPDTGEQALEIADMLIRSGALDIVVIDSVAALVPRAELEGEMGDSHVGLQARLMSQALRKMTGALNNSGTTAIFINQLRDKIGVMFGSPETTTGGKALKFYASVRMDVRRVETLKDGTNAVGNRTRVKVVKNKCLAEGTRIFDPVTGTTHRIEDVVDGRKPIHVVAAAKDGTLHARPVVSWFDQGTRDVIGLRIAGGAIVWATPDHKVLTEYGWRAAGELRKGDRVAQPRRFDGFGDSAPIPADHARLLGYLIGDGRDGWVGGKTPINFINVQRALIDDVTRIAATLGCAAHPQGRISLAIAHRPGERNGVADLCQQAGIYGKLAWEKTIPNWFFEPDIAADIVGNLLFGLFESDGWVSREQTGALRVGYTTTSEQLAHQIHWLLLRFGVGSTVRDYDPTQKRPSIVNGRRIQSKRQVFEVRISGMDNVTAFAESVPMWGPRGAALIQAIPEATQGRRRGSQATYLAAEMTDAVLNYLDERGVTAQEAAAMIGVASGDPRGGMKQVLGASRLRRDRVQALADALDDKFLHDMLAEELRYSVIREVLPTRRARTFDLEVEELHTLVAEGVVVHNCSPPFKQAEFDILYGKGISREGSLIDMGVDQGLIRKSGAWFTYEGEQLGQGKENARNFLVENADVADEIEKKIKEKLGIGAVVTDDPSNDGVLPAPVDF

[10] = molecular target: T4, Replicative DNA helicase DnaB (Mycobacterium tuberculosis, UniProt P9WMR3); assay: DnaB intein splicing inhibitors, dose response, biochemical, cell-free fluorescence (AID 449749); type: functional
T4 sequence (P9WMR3 whole entry): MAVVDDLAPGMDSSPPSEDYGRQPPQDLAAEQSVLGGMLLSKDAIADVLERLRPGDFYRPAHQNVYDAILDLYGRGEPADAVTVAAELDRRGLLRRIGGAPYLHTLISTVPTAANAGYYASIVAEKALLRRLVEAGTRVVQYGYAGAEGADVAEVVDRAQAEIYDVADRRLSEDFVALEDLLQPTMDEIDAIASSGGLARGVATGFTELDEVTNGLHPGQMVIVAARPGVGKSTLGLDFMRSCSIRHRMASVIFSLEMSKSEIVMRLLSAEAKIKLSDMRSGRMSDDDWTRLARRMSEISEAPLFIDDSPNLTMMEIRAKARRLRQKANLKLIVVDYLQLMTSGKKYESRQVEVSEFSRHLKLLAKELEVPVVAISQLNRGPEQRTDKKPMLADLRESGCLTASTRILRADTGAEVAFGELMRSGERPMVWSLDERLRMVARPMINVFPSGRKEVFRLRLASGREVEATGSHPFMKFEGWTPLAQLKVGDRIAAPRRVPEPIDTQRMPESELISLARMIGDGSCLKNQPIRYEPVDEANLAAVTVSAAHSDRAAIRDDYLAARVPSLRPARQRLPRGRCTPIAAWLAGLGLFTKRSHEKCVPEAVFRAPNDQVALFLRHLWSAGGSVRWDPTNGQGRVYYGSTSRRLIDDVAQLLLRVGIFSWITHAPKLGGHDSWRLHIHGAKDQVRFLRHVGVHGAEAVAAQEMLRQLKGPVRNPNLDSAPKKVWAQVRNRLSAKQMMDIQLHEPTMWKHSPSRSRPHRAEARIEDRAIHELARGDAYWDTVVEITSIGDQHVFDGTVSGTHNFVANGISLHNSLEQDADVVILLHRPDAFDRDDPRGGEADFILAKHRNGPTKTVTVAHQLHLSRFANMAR

Chain of Luciferin 4-monooxygenase (P08659 whole entry): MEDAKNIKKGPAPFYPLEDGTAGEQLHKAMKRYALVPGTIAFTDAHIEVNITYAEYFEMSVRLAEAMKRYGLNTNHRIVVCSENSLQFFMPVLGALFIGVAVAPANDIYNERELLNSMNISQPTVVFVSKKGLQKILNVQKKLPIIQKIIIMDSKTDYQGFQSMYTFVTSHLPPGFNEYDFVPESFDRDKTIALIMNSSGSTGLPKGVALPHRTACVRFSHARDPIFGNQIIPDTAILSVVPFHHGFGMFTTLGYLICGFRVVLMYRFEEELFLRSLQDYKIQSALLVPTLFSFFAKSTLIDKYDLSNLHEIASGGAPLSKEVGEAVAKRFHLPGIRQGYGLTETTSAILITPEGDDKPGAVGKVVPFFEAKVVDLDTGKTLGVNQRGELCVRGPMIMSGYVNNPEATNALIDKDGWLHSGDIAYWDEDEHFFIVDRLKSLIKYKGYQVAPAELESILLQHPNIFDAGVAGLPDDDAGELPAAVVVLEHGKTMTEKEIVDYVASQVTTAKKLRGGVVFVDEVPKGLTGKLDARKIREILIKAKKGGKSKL
Chain of FAD-linked sulfhydryl oxidase ALR (P55789 whole entry): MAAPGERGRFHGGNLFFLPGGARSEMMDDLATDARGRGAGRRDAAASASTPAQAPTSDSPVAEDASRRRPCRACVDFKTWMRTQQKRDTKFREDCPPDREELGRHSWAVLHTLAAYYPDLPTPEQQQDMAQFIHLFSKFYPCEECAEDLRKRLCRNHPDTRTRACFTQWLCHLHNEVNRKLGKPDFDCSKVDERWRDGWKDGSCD
T1 sequence (P49327 whole entry): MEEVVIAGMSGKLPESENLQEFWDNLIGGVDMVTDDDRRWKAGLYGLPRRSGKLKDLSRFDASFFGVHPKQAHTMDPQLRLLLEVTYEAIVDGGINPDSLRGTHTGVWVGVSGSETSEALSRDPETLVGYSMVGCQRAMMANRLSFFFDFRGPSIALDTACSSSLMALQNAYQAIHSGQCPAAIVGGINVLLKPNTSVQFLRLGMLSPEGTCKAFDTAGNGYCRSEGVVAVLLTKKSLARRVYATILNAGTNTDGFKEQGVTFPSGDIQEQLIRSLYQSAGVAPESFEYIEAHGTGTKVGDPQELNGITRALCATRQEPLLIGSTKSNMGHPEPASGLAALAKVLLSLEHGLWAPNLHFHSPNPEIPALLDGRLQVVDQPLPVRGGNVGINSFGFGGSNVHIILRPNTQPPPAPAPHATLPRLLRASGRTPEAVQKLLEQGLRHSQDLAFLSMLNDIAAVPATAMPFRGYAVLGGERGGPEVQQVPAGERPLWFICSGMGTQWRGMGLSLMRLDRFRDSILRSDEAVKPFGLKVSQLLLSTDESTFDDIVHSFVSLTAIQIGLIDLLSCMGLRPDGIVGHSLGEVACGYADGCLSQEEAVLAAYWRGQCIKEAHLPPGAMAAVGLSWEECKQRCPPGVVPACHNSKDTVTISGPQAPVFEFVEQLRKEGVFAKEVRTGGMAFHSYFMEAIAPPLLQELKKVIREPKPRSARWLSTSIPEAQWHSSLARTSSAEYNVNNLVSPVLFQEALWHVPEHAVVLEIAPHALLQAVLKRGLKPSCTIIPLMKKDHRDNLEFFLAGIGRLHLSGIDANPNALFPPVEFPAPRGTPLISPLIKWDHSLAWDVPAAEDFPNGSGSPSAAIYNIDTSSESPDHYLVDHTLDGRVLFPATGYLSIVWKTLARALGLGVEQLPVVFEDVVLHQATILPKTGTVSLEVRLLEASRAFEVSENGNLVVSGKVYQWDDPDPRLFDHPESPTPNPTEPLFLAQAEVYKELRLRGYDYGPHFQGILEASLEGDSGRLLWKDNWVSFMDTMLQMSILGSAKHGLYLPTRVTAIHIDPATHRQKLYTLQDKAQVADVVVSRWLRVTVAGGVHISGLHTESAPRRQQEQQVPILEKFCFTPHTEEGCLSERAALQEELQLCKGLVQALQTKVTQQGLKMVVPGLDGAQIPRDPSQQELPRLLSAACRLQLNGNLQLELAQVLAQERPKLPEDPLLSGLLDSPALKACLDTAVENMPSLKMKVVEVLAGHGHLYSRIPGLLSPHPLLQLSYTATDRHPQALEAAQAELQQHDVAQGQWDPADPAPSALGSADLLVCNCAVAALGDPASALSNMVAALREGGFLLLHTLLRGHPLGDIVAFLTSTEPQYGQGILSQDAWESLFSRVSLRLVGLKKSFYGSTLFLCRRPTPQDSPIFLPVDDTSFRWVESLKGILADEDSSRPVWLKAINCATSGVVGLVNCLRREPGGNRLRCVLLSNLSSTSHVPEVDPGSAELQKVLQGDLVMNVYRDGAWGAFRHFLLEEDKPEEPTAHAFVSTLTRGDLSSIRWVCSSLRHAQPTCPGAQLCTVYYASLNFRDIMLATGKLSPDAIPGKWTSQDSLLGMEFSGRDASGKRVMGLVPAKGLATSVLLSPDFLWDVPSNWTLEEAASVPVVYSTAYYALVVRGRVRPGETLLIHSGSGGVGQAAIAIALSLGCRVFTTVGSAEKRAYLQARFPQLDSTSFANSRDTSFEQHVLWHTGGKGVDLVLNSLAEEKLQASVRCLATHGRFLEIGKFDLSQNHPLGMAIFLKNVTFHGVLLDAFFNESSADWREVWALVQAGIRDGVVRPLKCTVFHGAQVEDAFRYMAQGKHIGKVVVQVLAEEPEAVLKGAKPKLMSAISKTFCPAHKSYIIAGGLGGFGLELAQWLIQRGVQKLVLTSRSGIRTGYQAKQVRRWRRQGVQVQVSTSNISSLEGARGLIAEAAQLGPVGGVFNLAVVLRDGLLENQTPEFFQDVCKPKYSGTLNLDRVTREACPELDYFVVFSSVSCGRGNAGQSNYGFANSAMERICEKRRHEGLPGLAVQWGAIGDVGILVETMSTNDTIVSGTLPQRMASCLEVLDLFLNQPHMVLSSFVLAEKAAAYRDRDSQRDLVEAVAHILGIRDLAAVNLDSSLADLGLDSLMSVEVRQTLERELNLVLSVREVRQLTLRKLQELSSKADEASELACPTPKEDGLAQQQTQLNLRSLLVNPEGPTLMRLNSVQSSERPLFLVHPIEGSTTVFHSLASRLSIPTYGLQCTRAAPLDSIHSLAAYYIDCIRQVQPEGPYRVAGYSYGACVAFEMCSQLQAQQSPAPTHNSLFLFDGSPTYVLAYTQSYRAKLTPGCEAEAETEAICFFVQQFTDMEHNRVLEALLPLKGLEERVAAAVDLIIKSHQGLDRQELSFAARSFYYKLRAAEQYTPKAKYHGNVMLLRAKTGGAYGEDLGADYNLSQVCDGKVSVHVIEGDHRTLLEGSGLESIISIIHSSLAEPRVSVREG
Chain of Genome polyprotein (P29990 2492-3391 limits assumed): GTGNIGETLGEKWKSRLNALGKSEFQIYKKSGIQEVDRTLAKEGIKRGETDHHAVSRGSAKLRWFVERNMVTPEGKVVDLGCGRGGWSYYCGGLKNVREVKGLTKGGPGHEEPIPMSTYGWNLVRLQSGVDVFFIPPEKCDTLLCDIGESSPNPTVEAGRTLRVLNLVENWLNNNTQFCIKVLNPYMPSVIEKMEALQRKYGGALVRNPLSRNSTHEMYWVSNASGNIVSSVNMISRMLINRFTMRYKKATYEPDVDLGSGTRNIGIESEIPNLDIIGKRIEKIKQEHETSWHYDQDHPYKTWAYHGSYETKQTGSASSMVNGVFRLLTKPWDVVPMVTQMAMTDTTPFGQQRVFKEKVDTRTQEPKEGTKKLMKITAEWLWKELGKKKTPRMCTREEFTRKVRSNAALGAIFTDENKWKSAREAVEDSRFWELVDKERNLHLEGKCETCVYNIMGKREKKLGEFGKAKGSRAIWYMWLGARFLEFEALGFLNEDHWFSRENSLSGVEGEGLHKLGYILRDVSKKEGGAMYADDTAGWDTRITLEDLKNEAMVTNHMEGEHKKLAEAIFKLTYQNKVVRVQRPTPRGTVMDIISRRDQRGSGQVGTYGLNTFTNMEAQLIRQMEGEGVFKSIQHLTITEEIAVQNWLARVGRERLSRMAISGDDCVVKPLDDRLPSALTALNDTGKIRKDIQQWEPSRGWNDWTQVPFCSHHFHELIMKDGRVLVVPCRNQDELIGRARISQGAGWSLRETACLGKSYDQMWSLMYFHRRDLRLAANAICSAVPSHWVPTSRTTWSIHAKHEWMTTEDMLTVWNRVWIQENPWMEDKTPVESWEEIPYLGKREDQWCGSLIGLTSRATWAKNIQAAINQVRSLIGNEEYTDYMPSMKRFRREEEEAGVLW

Compound: O=C(NCc1cccnc1)C(=O)NCC(c1ccco1)N1CCN(c2ccccc2)CC1 (configuration not stated)
- AC50 [1]: 2.78 µM (active)

Compound: COc1cccc(-c2ccc(SCC(=O)N3CCN(c4ccccc4)CC3)nn2)c1
- IC50 (H9c2): 16.1 µM (active)

Compound: CC(C)=NNc1nc(-c2ccccc2)cs1
- AC50 [1]: 0.601 µM (active)

Compound: CC1CCCN(C(=O)COC(=O)c2cc([N+](=O)[O-])ccc2N2CCOCC2)C1 (configuration not stated)
- IC50 (Fatty acid synthase [2]): 1.91 µM (active)
- IC50 (Fatty acid synthase [3]): 2.27 µM (active)

Compound: O=C(CNC(=O)c1ccccc1F)N/N=C/c1cc(Br)ccc1OC(=O)/C=C/c1ccco1
- IC50 (H9c2): > 79 µM (inactive)

Compound: O=C(Nc1ccn(Cc2ccc(F)cc2)n1)c1ccncc1
- EC50 [4]: > 112 µM (not active)
- EC50 [5]: > 112 µM (not active)

Compound: CC1Cc2ccccc2N1C(=O)Cn1nc(C(=O)O)c2ccccc2c1=O (configuration not stated)
- IC50 (H9c2): 13.7 µM (active)

Compound: NC(=O)N1CCN(C(=O)c2ccco2)CC1
- EC50 [4]: > 112 µM (not active)
- EC50 [5]: > 112 µM (not active)

Compound: O=C(CCc1nc(O)c2ccccc2n1)Nc1ccc(F)cc1
- IC50 (H9c2): > 79 µM (inactive)

Compound: COc1ccc(CN2CCN(C(=O)Cn3nc(C(=O)O)c4ccccc4c3=O)CC2)cc1F
- EC50 [4]: 7.7 µM (active)
- EC50 [5]: > 112 µM (not active)

Compound: CCCCOc1ccc(C(=O)NCC(=O)N(C)Cc2nc(O)c3ccccc3n2)cc1
- IC50 (H9c2): > 79 µM (inactive)

Compound: Cc1cc(F)ccc1NC(=O)c1cc(S(=O)(=O)N2CCOCC2)cn1C
- EC50 [4]: > 112 µM (not active)
- EC50 [5]: > 112 µM (not active)

Compound: CC1Cc2nc(SCC(=O)N3CCCc4ccccc43)n(C)c(=O)c2S1 (configuration not stated)
- EC50 [4]: > 112 µM (not active)
- EC50 [5]: > 112 µM (not active)

Compound: CCN(CC(=O)Nc1c(F)cccc1F)C(=O)Cc1nnc(O)c2ccccc12
- IC50 (H9c2): > 79 µM (inactive)
- EC50 [6]: > 195 µM (not active)

Compound: Cn1c(S)nnc1CCNC(=O)OC(C)(C)C
- AC50 [1]: 2.79 µM (active)

Compound: Cc1noc(NS(=O)(=O)c2ccc(NC(=O)c3cnc4n(c3=O)CCS4)cc2)c1C
- AC50 [1]: 0.255 µM (active)

Compound: O=C(COC(=O)c1cc([N+](=O)[O-])ccc1N1CCOCC1)Nc1ccc(Cl)cc1
- IC50 (Fatty acid synthase [2]): 1.96 µM (active)
- IC50 (Fatty acid synthase [3]): 2.23 µM (active)

Compound: COc1cc2nc(C3CCC3)nc(N3CCN(c4ccccn4)CC3)c2cc1OC
- EC50 [7]: 15.2 µM (active)
- EC50 [8]: 15.1 µM (active)
- EC50 [9]: 14.6 µM (active)
- IC50 (H9c2): > 79 µM (inactive)

Compound: O=C1C(Cl)=C(N2CCCCC2)C(=O)N1c1ccccc1
- IC50 (Genome polyprotein): 66.9 µM (active)
- EC50 (Protein RecA): 3.22 µM (active)
- AC50 [10]: 8.22 µM (active)
